Data taken from publication PMC11994314, “Binding mode between peptidyl-tRNA hydrolase and the peptidyl-A76 moiety of the substrate” (The Journal of Biological Chemistry, 2025).

B1: C-terminal 16-amino acid deletion mutant of Thermus thermophilus HB8 peptidyl-tRNA hydrolase (ΔC16 TtPth) (domain or fragment, UniProt Q5SHZ2 1-167, looked up)
chain: MFLVVGQGNPGERYARTRHNLGFMVLDRLGLSFRPRGEALVAEAEGGLFLKPLTYYNLTGRAVAPLARFYKIPPERILVVHDEMDLPLGRIRFKAGGSAAGNRGVLSIEEALGTRAFHRLRLGIGKPPDPSRGAEYVLSPFREEELPVVERVLEAAKEAVWCWVREG
notes: Peptidyl-tRNA hydrolase (Pth, Pth1 type) of Thermus thermophilus HB8, lacking the C-terminal 16 amino acid residues (the C-terminal α-helix); the construct ends with Arg165-Glu166-Gly167; The His-tag was removed with thrombin; also called TtPth⋅tripeptide; C-terminal α-helix (C-terminal 16 amino acid residues) deletion mutant; source: E. coli BL21(DE3), purified (Ni-chelating column, thrombin …)

Experiments:
[1] = molecular target: T1, TtPth (Thermus thermophilus peptidyl-tRNA hydrolase) (Thermus thermophilus, UniProt Q5SHZ2); test: X-ray crystal structure (co-crystallisation), […] Å; type: binding; conditions: 40 mM AMP in reservoir, MES pH 5.8, 20 °C; active site cleft, acidic pocket, A76 mimic
T1 construct: gene pth; wild type, full length (183 residues inferred from deletion of C-terminal 16 leaving Gly167 as last residue); monomer; wild type for crystals expressed and purified as described previously

[2] = molecular target: the molecule itself; test: crystal structure; crystals of ΔC16 TtPth (13 mg/ml, with 20 mM 3′-(N-acetyl-L-alanyl)amino-3′-deoxyadenosine, which was not seen in the density); 0.5 M (NH4)2SO4, 0.1 M Tris-HCl pH 7.5, 30% PEG600, 10% glycerol, 20 °C; contact between crystallographically related molecules, 2.10 Å

T1 sequence (Q5SHZ2 whole entry): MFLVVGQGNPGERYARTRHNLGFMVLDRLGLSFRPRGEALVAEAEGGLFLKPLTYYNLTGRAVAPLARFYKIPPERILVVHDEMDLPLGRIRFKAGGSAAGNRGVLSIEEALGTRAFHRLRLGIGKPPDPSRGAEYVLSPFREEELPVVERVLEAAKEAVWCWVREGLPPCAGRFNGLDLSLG

| Molecule | X-ray crystal structure (co-crystallisation), 1.60 Å [1] | binding result [2] |
| --- | --- | --- |
| Nc1ncnc2c1ncn2[C@@H]1O[C@H](COP(=O)(O)O)[C@@H](O)[C@H]1O [adenosine 5′-monophosphate] | The structure of TtPth⋅AMP revealed that AMP is bound to an acidic pocket |  |
| B1 |  | binds |
